{"source": "patent US12588677B2", "about": "“Herbicidal compositions comprising topramezone” (BASF SE, priority 2024, dated 2026)", "type_in_all_cases": "in vivo", "key": {"[1]": {"test_system": "Abutilon theophrasti (ABUTH)", "experiment": "Post-emergence application in greenhouse trials", "settings": "7 DAT", "procedure": "(§1) The culture containers used were plastic pots containing loamy sand with approximately 3.0% of humus as substrate. The seeds of the test plants were sown separately for each species.\n(§2) For the post-emergence treatment, the test plants were grown to a plant height as indicated below, depending on the plant habit, and only then treated with the active compounds which had been suspended or emulsified in water. To this end, the test plants were either sown directly, and grown in the same containers, or they were first grown separately as seedlings and transplanted into the test containers a few days prior to treatment.\n(§3) Depending on the species, the plants were kept at 10-25° C. and 20-35° C., respectively. The test period extended over 2 to 4 weeks. During this time, the plants were tended and their response to the individual treatments was evaluated.\n(§4) Evaluation was carried out using a scale from 0 to 100. 100 means no emergence of the plants, or complete destruction of at least the above-ground parts, and 0 means no damage or normal course of growth. A good herbicidal activity is given at values of at least 70, and very good herbicidal activity is given at values of at least 85.\n(§5) Herbicide A-1 and topramezone were, together with addition of 0.5 v/v % MSO (methylated sed oil) as adjuvant, formulated in water as distribution medium (water volume 200 l/ha) and sprayed with commercial flat fan nozzles.\n(§6) Herbicide A-1 (342 g/l), topramezone (336 g/l) and DMTA-p (720 g/l) were, together with addition of 0.5 v/v % MSO (methylated sed oil) as adjuvant, formulated in water as distribution medium (water volume 200 l/ha) and sprayed with commercial flat fan nozzles."}, "[2]": {"test_system": "Amaranthus tamariscinus (AMATA)", "experiment": "Post-emergence application in greenhouse trials", "settings": "growth stage 14, B-1 6.25 g ai/ha, 7 DAT", "procedure": "as §1, §2, §3, §4, §5, §6"}, "Avena fatua (AVEFA)": {"test_system": "Avena fatua (AVEFA)", "experiment": "Post-emergence application in greenhouse trials", "settings": "growth stage 11, 3.125 g ai/ha", "procedure": "as §1, §2, §3, §4, §5, §6"}, "[3]": {"test_system": "Brachiaria decumbens (BRADC (BRARU))", "experiment": "Post-emergence application in greenhouse trials", "procedure": "as §1, §2, §3, §4, §5, §6"}, "[4]": {"test_system": "Commelina benghalenis (COMBE)", "experiment": "Post-emergence application in greenhouse trials", "procedure": "as §1, §2, §3, §4, §5, §6"}, "[5]": {"test_system": "Digitaria sanguinalis (DIGSA)", "experiment": "Post-emergence application in greenhouse trials", "settings": "20 DAT, growth stage 13, 3.12 g ai/ha", "procedure": "as §1, §2, §3, §4, §5, §6"}, "Eleusine indica (ELEIN)": {"test_system": "Eleusine indica (ELEIN)", "experiment": "Post-emergence application in greenhouse trials", "settings": "growth stage 13, B-1 3.12 g ai/ha, 7 DAT", "procedure": "as §1, §2, §3, §4, §5, §6"}, "[6]": {"test_system": "Erigeron canadensis (ERICA)", "experiment": "Post-emergence application in greenhouse trials", "settings": "20 DAT", "procedure": "as §1, §2, §3, §4, §5, §6"}, "Glycine max (GLXMA) [7]": {"test_system": "Glycine max (GLXMA)", "experiment": "Post-emergence application in greenhouse trials", "settings": "7 DAT, growth stage 18, 3.125 g ai/ha", "procedure": "as §1, §2, §3, §4, §5, §6"}, "Kochia scoparia (KCHSC)": {"test_system": "Kochia scoparia (KCHSC)", "experiment": "Post-emergence application in greenhouse trials", "settings": "20 DAT, growth stage 24, 6.25 g ai/ha", "procedure": "as §1, §2, §3, §4, §5, §6"}, "Setaria virids (SETVI)": {"test_system": "Setaria virids (SETVI)", "experiment": "Post-emergence application in greenhouse trials", "procedure": "as §1, §2, §3, §4, §5, §6"}, "Zea mays (ZEAMX) [8]": {"test_system": "Zea mays (ZEAMX)", "experiment": "Post-emergence application in greenhouse trials", "settings": "growth stage 12, 3.125 g ai/ha", "procedure": "as §1, §2, §3, §4, §5, §6"}, "[9]": {"test_system": "Abutilon theophrasti (ABUTH)", "experiment": "Post-emergence application in field trials", "settings": "height 10-12 cm", "from_the_text": "(§7) Post-Emergence Application of Herbicide A-1 (A-1) and Topramezone (B-1) in Field Trials\n(§8) Herbicide A-1 (342 g/l) and topramezone (336 g/l) were, together with addition of 0.25 v/v % MSO (methylated sed oil) as adjuvant, formulated in water as distribution medium (water volume 200 l/ha) and sprayed with commercial flat fan nozzles."}, "[10]": {"test_system": "Digitaria sanguinalis (DIGSA)", "experiment": "Post-emergence application in field trials", "settings": "21 DAT, height 10-15 cm, 18 g ai/ha", "from_the_text": "as §7, §8"}, "Glycine max (GLXMA) [11]": {"test_system": "Glycine max (GLXMA)", "experiment": "Post-emergence application in field trials", "settings": "height 7-11 cm, 7 DAT", "from_the_text": "as §7, §8"}, "Hordeum vulgare (HORVX)": {"test_system": "Hordeum vulgare (HORVX)", "experiment": "Post-emergence application in field trials", "settings": "height 20-25 cm", "from_the_text": "as §7, §8"}, "[12]": {"test_system": "Setaria verticillata (SETVE)", "experiment": "Post-emergence application in field trials", "settings": "height 8-16 cm, 18 g ai/ha", "from_the_text": "as §7, §8"}, "Zea mays (ZEAMX) [13]": {"test_system": "Zea mays (ZEAMX)", "experiment": "Post-emergence application in field trials", "settings": "height 50-60 cm", "from_the_text": "as §7, §8"}}, "data": [{"smiles": "Cc1c(C(=O)c2cnn(C)c2O)ccc(S(C)(=O)=O)c1C1=NOCC1", "note": "[B-1, topramezone]", "values": [{"measurement": "% herbicidal activity", "setting": "[1]; growth stage 15, 3.125 g ai/ha", "result": 50, "unit": "%"}, {"measurement": "% herbicidal activity", "setting": "[1]; ABUTH, growth stage 13, B-1 3.12 g ai/ha", "result": 45, "unit": "%"}, {"measurement": "% herbicidal activity", "setting": "[2]", "result": 80, "unit": "%"}, {"measurement": "% herbicidal activity", "setting": "Avena fatua (AVEFA); 7 DAT", "result": 10, "unit": "%"}, {"measurement": "% herbicidal activity", "setting": "Avena fatua (AVEFA); 21 DAT", "result": 10, "unit": "%"}, {"measurement": "% herbicidal activity", "setting": "[3]; 7 DAT, growth stage 11, 3.125 g ai/ha", "result": 50, "unit": "%"}, {"measurement": "% herbicidal activity", "setting": "[3]; 20 DAT, growth stage 12, 6.25 g ai/ha", "result": 75, "unit": "%"}, {"measurement": "% herbicidal activity", "setting": "[4]; 20 DAT, growth stage 11, 6.25 g ai/ha", "result": 10, "unit": "%"}, {"measurement": "% herbicidal activity", "setting": "[4]; 21 DAT, growth stage 13, 3.125 g ai/ha", "result": 35, "unit": "%"}, {"measurement": "% herbicidal activity", "setting": "[5]", "result": 85, "unit": "%"}, {"measurement": "% herbicidal activity", "setting": "Eleusine indica (ELEIN)", "result": 80, "unit": "%"}, {"measurement": "% herbicidal activity", "setting": "[6]; growth stage 19, 3.12 g ai/ha", "result": 25, "unit": "%"}, {"measurement": "% herbicidal activity", "setting": "[6]; growth stage 19, 6.25 g ai/ha", "result": 55, "unit": "%"}, {"measurement": "% herbicidal activity", "setting": "Glycine max (GLXMA) [7]", "result": 20, "unit": "%"}, {"measurement": "% herbicidal activity", "setting": "Kochia scoparia (KCHSC)", "result": 60, "unit": "%"}, {"measurement": "% herbicidal activity", "setting": "Setaria virids (SETVI); 20 DAT, growth stage 12, 3.12 g ai/ha", "result": 70, "unit": "%"}, {"measurement": "% herbicidal activity", "setting": "Setaria virids (SETVI); SETVI, growth stage 12, B-1 6.25 g ai/ha, 7 DAT", "result": 75, "unit": "%"}, {"measurement": "% herbicidal activity", "setting": "Zea mays (ZEAMX) [8]; 7 DAT", "result": 5, "unit": "%"}, {"measurement": "% herbicidal activity", "setting": "Zea mays (ZEAMX) [8]; 21 DAT", "result": 0, "unit": "%"}, {"measurement": "% herbicidal activity", "setting": "[9]; 21 DAT, 12.5 g ai/ha", "result": 60, "unit": "%"}, {"measurement": "% herbicidal activity", "setting": "[9]; 21 DAT, 18 g ai/ha", "result": 65, "unit": "%"}, {"measurement": "% herbicidal activity", "setting": "[9]; 42 DAT, 12.5 g ai/ha", "result": 60, "unit": "%"}, {"measurement": "% herbicidal activity", "setting": "[9]; 42 DAT, 18 g ai/ha", "result": 65, "unit": "%"}, {"measurement": "% herbicidal activity", "setting": "[9]; ABUTH, B-1 12.5 g ai/ha, 7 DAT", "result": 50, "unit": "%"}, {"measurement": "% herbicidal activity", "setting": "[9]; ABUTH, B-1 18 g ai/ha, 7 DAT", "result": 55, "unit": "%"}, {"measurement": "% herbicidal activity", "setting": "[10]", "result": 40, "unit": "%"}, {"measurement": "% herbicidal activity", "setting": "Glycine max (GLXMA) [11]; B-1 12.5 g ai/ha", "result": 45, "unit": "%"}, {"measurement": "% herbicidal activity", "setting": "Glycine max (GLXMA) [11]; B-1 18 g ai/ha", "result": 45, "unit": "%"}, {"measurement": "% herbicidal activity", "setting": "Hordeum vulgare (HORVX); 21 DAT, 12.5 g ai/ha", "result": 0, "unit": "%"}, {"measurement": "% herbicidal activity", "setting": "Hordeum vulgare (HORVX); 21 DAT, 18 g ai/ha", "result": 10, "unit": "%"}, {"measurement": "% herbicidal activity", "setting": "Hordeum vulgare (HORVX); HORVX, B-1 18 g ai/ha, 7 DAT", "result": 20, "unit": "%"}, {"measurement": "% herbicidal activity", "setting": "[12]; 21 DAT", "result": 45, "unit": "%"}, {"measurement": "% herbicidal activity", "setting": "[12]; 42 DAT", "result": 40, "unit": "%"}, {"measurement": "% herbicidal activity", "setting": "Zea mays (ZEAMX) [13]; 21 DAT, 12.5 g ai/ha", "result": 0, "unit": "%"}, {"measurement": "% herbicidal activity", "setting": "Zea mays (ZEAMX) [13]; 21 DAT, 18 g ai/ha", "result": 0, "unit": "%"}, {"measurement": "% herbicidal activity", "setting": "Zea mays (ZEAMX) [13]; 28 DAT, 12.5 g ai/ha", "result": 0, "unit": "%"}, {"measurement": "% herbicidal activity", "setting": "Zea mays (ZEAMX) [13]; 28 DAT, 18 g ai/ha", "result": 0, "unit": "%"}]}]}
